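Method: 48-hour compound exposure of cells in 96-well plates, five concentrations, linear interpolation of endpoints. TGI marks complete inhibition of growth.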
How the values were obtained:
Test in all cases: NCI-60 cell line screen, 48 h
786-0 renal = tested on: 786-0 renal
A498 renal = tested on: A498 renal
ACHN renal = tested on: ACHN renal
BT-549 breast = tested on: BT-549 breast
CAKI-1 renal = tested on: CAKI-1 renal
COLO 205 colon = tested on: COLO 205 colon
DU-145 prostate = tested on: DU-145 prostate
EKVX NSCLC = tested on: EKVX NSCLC
HCC-2998 colon = tested on: HCC-2998 colon
HCT-116 colon = tested on: HCT-116 colon
HCT-15 colon = tested on: HCT-15 colon
HL-60(TB) leukemia = tested on: HL-60(TB) leukemia
HOP-62 NSCLC = tested on: HOP-62 NSCLC
HS 578T breast = tested on: HS 578T breast
HT29 colon = tested on: HT29 colon
IGROV1 ovarian = tested on: IGROV1 ovarian
K-562 leukemia = tested on: K-562 leukemia
KM12 colon = tested on: KM12 colon
LOX IMVI melanoma = tested on: LOX IMVI melanoma
MALME-3M melanoma = tested on: MALME-3M melanoma
MCF7 breast = tested on: MCF7 breast
MDA-MB-231 breast = tested on: MDA-MB-231 breast
MDA-MB-435 = tested on: MDA-MB-435
MDA-N = tested on: MDA-N
MOLT-4 leukemia = tested on: MOLT-4 leukemia
NCI-H226 lung = tested on: NCI-H226 lung
NCI-H23 lung = tested on: NCI-H23 lung
NCI-H460 lung = tested on: NCI-H460 lung
NCI-H522 lung = tested on: NCI-H522 lung
NCI/ADR-RES ovarian = tested on: NCI/ADR-RES ovarian
OVCAR-3 ovarian = tested on: OVCAR-3 ovarian
OVCAR-4 ovarian = tested on: OVCAR-4 ovarian
OVCAR-5 ovarian = tested on: OVCAR-5 ovarian
OVCAR-8 ovarian = tested on: OVCAR-8 ovarian
PC-3 prostate = tested on: PC-3 prostate
RPMI-8226 leukemia = tested on: RPMI-8226 leukemia
RXF 393 renal = tested on: RXF 393 renal
SF-268 CNS = tested on: SF-268 CNS
SF-295 CNS = tested on: SF-295 CNS
SK-MEL-2 melanoma = tested on: SK-MEL-2 melanoma
SK-MEL-28 melanoma = tested on: SK-MEL-28 melanoma
SK-MEL-5 melanoma = tested on: SK-MEL-5 melanoma
SN12C renal = tested on: SN12C renal
SNB-19 CNS = tested on: SNB-19 CNS
SNB-75 CNS = tested on: SNB-75 CNS
SR leukemia = tested on: SR leukemia
SW-620 colon = tested on: SW-620 colon
T-47D breast = tested on: T-47D breast
TK-10 renal = tested on: TK-10 renal
U251 CNS = tested on: U251 CNS
UACC-257 melanoma = tested on: UACC-257 melanoma
UACC-62 melanoma = tested on: UACC-62 melanoma
UO-31 renal = tested on: UO-31 renal
A549 NSCLC = tested on: A549 NSCLC
CCRF-CEM leukemia = tested on: CCRF-CEM leukemia
HOP-92 NSCLC = tested on: HOP-92 NSCLC
M14 melanoma = tested on: M14 melanoma
SF-539 CNS = tested on: SF-539 CNS
SK-OV-3 ovarian = tested on: SK-OV-3 ovarian

## CC(=O)OCC1OC(Nc2ccc3nc(C)n(-c4cccc(C)c4)c(=O)c3c2)C(OC(C)=O)C(OC(C)=O)C1OC(C)=O (stereo unspecified)
786-0 renal
  TGI: > 62.5 µM
A498 renal
  TGI: > 62.5 µM
ACHN renal
  TGI: > 62.5 µM
BT-549 breast
  TGI: > 62.5 µM
CAKI-1 renal
  TGI: > 62.5 µM
COLO 205 colon
  TGI: > 62.5 µM
DU-145 prostate
  TGI: > 62.5 µM
EKVX NSCLC
  TGI: > 62.5 µM
HCC-2998 colon
  TGI: > 62.5 µM
HCT-116 colon
  TGI: > 62.5 µM
HCT-15 colon
  TGI: > 62.5 µM
HL-60(TB) leukemia
  TGI: > 62.5 µM
HOP-62 NSCLC
  TGI: > 62.5 µM
HS 578T breast
  TGI: > 62.5 µM
HT29 colon
  TGI: > 62.5 µM
IGROV1 ovarian
  TGI: > 62.5 µM
K-562 leukemia
  TGI: > 62.5 µM
KM12 colon
  TGI: > 62.5 µM
LOX IMVI melanoma
  TGI: > 62.5 µM
MALME-3M melanoma
  TGI: > 62.5 µM
MCF7 breast
  TGI: > 62.5 µM
MDA-MB-231 breast
  TGI: > 62.5 µM
MDA-MB-435
  TGI: > 62.5 µM
MDA-N
  TGI: > 62.5 µM
MOLT-4 leukemia
  TGI: > 62.5 µM
NCI-H226 lung
  TGI: > 62.5 µM
NCI-H23 lung
  TGI: > 62.5 µM
NCI-H460 lung
  TGI: > 62.5 µM
NCI-H522 lung
  TGI: > 62.5 µM
NCI/ADR-RES ovarian
  TGI: > 62.5 µM
OVCAR-3 ovarian
  TGI: > 62.5 µM
OVCAR-4 ovarian
  TGI: > 62.5 µM
OVCAR-5 ovarian
  TGI: > 62.5 µM
OVCAR-8 ovarian
  TGI: > 62.5 µM
PC-3 prostate
  TGI: > 62.5 µM
RPMI-8226 leukemia
  TGI: > 62.5 µM
RXF 393 renal
  TGI: > 62.5 µM
SF-268 CNS
  TGI: > 62.5 µM
SF-295 CNS
  TGI: > 62.5 µM
SK-MEL-2 melanoma
  TGI: > 62.5 µM
SK-MEL-28 melanoma
  TGI: > 62.5 µM
SK-MEL-5 melanoma
  TGI: > 62.5 µM
SN12C renal
  TGI: > 62.5 µM
SNB-19 CNS
  TGI: > 62.5 µM
SNB-75 CNS
  TGI: > 62.5 µM
SR leukemia
  TGI: > 62.5 µM
SW-620 colon
  TGI: > 62.5 µM
T-47D breast
  TGI: > 62.5 µM
TK-10 renal
  TGI: > 62.5 µM
U251 CNS
  TGI: > 62.5 µM
UACC-257 melanoma
  TGI: > 62.5 µM
UACC-62 melanoma
  TGI: > 62.5 µM
UO-31 renal
  TGI: > 62.5 µM

## Cc1cccc(/C=N/NC(=S)NCc2ccccn2)n1
786-0 renal
  TGI: > 100 µM
A498 renal
  TGI: > 100 µM
A549 NSCLC
  TGI: > 100 µM
ACHN renal
  TGI: 67.5 µM
BT-549 breast
  TGI: > 100 µM
CAKI-1 renal
  TGI: > 100 µM
CCRF-CEM leukemia
  TGI: > 100 µM
COLO 205 colon
  TGI: > 100 µM
DU-145 prostate
  TGI: > 100 µM
EKVX NSCLC
  TGI: > 100 µM
HCC-2998 colon
  TGI: > 100 µM
HCT-116 colon
  TGI: > 100 µM
HCT-15 colon
  TGI: > 100 µM
HL-60(TB) leukemia
  TGI: > 100 µM
HOP-62 NSCLC
  TGI: > 78.6 µM
HOP-92 NSCLC
  TGI: 98.5 µM
HS 578T breast
  TGI: > 100 µM
HT29 colon
  TGI: > 100 µM
IGROV1 ovarian
  TGI: > 100 µM
K-562 leukemia
  TGI: > 100 µM
KM12 colon
  TGI: > 100 µM
LOX IMVI melanoma
  TGI: > 100 µM
M14 melanoma
  TGI: 42.6 µM
MALME-3M melanoma
  TGI: > 100 µM
MCF7 breast
  TGI: > 100 µM
MDA-MB-231 breast
  TGI: > 100 µM
MDA-MB-435
  TGI: > 100 µM
MDA-N
  TGI: > 100 µM
MOLT-4 leukemia
  TGI: > 100 µM
NCI-H226 lung
  TGI: > 100 µM
NCI-H23 lung
  TGI: > 100 µM
NCI-H460 lung
  TGI: > 100 µM
NCI-H522 lung
  TGI: > 100 µM
NCI/ADR-RES ovarian
  TGI: > 75.4 µM
OVCAR-3 ovarian
  TGI: > 100 µM
OVCAR-4 ovarian
  TGI: > 100 µM
OVCAR-5 ovarian
  TGI: > 100 µM
OVCAR-8 ovarian
  TGI: > 100 µM
PC-3 prostate
  TGI: > 100 µM
RPMI-8226 leukemia
  TGI: > 100 µM
SF-268 CNS
  TGI: > 93 µM
SF-295 CNS
  TGI: > 100 µM
SF-539 CNS
  TGI: 67.9 µM
SK-MEL-2 melanoma
  TGI: > 100 µM
SK-MEL-28 melanoma
  TGI: > 100 µM
SK-MEL-5 melanoma
  TGI: 70.9 µM
SK-OV-3 ovarian
  TGI: 97.7 µM
SN12C renal
  TGI: > 100 µM
SNB-19 CNS
  TGI: > 100 µM
SNB-75 CNS
  TGI: 73.6 µM
SR leukemia
  TGI: > 100 µM
SW-620 colon
  TGI: > 100 µM
T-47D breast
  TGI: > 100 µM
TK-10 renal
  TGI: > 100 µM
U251 CNS
  TGI: > 100 µM
UACC-257 melanoma
  TGI: > 100 µM
UACC-62 melanoma
  TGI: 54.3 µM
UO-31 renal
  TGI: 60 µM

Source: PubChem BioAssay (NCI)
